Active and inactive are the calls of the source.
What was measured:
[1] = test system: HEK293; experiment: NOD1 signaling inhibitors, primary screen, cell-based, luminescence, uHTS (AID 1578); type: functional; settings: Homo sapiens
[2] = test system: HEK293; experiment: cells; type: functional, cell-based; settings: Homo sapiens
[3] = biological target: T1, Heat shock factor protein 1 (Mus musculus, UniProt P38532); experiment: HSF1 potentiators in luciferase reporter cells, confirmation, cell-based, NIH3T3, luminescence, dose retest (AID 435004); type: functional;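 also: stress induced by proteasome inhibitor MG132 added 30 min after compound; luciferase reporter driven by HSF1 response element in NIH3T3 cells; actives raise luminescence as potentiators of the MG132 stress response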
T1 sequence (P38532 whole entry): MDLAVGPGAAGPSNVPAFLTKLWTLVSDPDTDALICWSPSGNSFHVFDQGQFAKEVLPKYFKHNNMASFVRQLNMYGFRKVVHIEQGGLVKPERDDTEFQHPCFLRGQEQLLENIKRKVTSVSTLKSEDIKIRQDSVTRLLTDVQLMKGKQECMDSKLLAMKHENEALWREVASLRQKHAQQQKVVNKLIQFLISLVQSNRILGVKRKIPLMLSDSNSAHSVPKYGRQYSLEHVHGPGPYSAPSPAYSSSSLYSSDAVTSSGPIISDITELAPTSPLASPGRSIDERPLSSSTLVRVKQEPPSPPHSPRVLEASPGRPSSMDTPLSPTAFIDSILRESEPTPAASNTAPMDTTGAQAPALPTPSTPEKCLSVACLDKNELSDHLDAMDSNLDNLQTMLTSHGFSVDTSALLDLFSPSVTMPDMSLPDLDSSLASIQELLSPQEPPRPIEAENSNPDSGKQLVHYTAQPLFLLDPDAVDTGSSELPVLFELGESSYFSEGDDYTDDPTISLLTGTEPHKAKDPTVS

[4] = biological target: Nucleotide-binding oligomerization domain-containing protein 2 (Homo sapiens, UniProt Q9HC29); experiment: NOD2 signaling inhibitors, cell-based, luminescence, uHTS, HEK293 (AID 1566); type: functional
[5] = test system: HEK293; experiment: NOD2 signaling inhibitors in MDP-stimulated cells, cell-based, uHTS, luminescence (AID 2001); type: functional; settings: Homo sapiens
[6] = test system: HEK293; experiment: cells; type: functional, cell-based; settings: Homo sapiens; remark: listed apart in the source
[7] = test system: HEK293; experiment: cells; type: functional, cell-based; settings: Homo sapiens; remark: listed apart in the source
[8] = biological target: T2, Neuropeptides B/W receptor type 1 (Homo sapiens, UniProt P48145); experiment: GPR7 antagonist potency, late-stage follow-up, cell-based, fluorescence, dose response (AID 463251); type: functional
T2 sequence (P48145 whole entry): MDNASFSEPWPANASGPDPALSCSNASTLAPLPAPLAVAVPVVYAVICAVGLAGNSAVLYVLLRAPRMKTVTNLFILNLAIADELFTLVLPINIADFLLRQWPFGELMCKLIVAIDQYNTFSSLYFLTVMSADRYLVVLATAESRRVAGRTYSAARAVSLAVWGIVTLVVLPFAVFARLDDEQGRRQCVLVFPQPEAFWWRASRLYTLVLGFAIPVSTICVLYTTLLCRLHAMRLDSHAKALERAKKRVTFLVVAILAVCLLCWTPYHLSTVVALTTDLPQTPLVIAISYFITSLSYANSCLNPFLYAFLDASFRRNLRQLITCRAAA

[9] = biological target: Aryl hydrocarbon receptor (Homo sapiens, UniProt P35869); experiment: Luminescence-based cell-based high throughput dose response assay for activators of the Aryl Hydrocarbon Receptor (AHR). [Related pubchem assays: 2796 (Primary screen (AHR activators in singlicate)), 2845 (Confirmation screen (AHR activators in triplicate)), 434939 (Counterscreen (PXR activators in triplicate)), 2804 (Summary (AHR activators))]; type: ADME
[10] = biological target: Eukaryotic translation initiation factor 4E (Mus musculus, UniProt P63073); experiment: eIF4E–eIF4G protein interaction inhibitors, dose response, biochemical, TR-FRET (AID 855); type: functional;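 also: potency for disrupting eIF4E binding to eIF4GI seen as loss of FRET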
[11] = Counterscreen for AddAB inhibitors: absorbance-based bacterial cell-based high throughput dose response assay for inhibitors of bacterial viability. [Related pubchem assays (depositor defined):AID435030, AID449728, AID449731, AID488942, AID488955, AID488956]; type: functional
[12] = biological target: T3, Caspase-3 (Homo sapiens, UniProt P42574); experiment: procaspase-3 activators, dose response, biochemical, absorbance (AID 489014)
T3 sequence (P42574 whole entry): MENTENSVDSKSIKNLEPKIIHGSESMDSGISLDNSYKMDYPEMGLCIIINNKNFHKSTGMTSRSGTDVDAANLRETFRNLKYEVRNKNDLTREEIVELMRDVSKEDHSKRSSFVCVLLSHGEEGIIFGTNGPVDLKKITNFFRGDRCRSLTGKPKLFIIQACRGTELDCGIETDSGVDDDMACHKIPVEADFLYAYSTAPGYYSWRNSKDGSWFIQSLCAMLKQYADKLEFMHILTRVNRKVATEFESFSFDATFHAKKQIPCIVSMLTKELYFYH

[13] = biological target: T4, Exodeoxyribonuclease V (Escherichia coli (strain K12), UniProt P04993+P07648+P08394); experiment: E. coli RecBCD inhibitors, dose response, counter-screen for AddAB inhibitor project, absorbance, V66 E. coli, mutant T4 phage (AID 492957); type: functional, cell-based, Escherichia coli str. K-12 substr. MG1655
T4 sequence (P04993 whole entry): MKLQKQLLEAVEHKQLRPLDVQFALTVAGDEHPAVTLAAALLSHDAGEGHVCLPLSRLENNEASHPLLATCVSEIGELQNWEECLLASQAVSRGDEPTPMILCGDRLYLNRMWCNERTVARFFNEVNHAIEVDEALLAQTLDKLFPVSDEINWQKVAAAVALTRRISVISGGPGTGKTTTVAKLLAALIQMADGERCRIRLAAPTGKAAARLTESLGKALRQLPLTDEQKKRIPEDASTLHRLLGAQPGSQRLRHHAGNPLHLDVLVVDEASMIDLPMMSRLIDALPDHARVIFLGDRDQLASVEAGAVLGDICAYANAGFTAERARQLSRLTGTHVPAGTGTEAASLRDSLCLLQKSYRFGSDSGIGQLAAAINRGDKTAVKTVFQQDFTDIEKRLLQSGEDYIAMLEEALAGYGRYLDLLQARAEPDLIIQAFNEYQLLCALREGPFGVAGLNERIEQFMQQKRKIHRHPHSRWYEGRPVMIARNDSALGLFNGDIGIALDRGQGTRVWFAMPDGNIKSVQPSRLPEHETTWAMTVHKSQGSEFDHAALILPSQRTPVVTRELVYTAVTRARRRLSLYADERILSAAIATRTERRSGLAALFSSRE
T4 sequence (P07648 whole entry): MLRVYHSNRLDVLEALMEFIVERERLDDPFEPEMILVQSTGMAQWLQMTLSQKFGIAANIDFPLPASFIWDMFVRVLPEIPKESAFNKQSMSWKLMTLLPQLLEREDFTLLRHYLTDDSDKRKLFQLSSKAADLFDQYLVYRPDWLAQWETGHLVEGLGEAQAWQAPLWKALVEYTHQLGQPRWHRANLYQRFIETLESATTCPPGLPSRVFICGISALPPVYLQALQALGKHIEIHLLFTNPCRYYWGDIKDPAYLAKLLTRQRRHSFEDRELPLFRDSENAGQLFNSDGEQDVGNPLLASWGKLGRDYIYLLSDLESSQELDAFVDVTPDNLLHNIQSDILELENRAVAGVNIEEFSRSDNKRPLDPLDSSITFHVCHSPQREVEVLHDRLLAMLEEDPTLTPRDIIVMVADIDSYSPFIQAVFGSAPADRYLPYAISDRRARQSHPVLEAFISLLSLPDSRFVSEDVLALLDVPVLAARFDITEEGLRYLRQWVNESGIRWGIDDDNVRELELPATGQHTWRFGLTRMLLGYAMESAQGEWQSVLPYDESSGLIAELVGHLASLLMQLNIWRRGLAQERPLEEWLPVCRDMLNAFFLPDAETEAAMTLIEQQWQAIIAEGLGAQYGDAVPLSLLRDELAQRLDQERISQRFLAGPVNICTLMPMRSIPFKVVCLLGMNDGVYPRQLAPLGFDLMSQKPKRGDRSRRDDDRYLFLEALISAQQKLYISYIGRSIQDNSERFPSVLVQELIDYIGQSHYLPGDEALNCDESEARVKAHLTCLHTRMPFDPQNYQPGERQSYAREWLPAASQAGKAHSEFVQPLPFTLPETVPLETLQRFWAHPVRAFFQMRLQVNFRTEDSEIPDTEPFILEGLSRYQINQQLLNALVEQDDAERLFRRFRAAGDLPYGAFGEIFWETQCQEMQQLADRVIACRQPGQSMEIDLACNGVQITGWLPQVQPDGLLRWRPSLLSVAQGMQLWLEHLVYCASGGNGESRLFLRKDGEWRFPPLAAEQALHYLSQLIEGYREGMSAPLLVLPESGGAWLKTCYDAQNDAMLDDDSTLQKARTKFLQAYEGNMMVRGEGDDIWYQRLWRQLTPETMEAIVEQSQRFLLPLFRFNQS
T4 sequence (P08394 whole entry): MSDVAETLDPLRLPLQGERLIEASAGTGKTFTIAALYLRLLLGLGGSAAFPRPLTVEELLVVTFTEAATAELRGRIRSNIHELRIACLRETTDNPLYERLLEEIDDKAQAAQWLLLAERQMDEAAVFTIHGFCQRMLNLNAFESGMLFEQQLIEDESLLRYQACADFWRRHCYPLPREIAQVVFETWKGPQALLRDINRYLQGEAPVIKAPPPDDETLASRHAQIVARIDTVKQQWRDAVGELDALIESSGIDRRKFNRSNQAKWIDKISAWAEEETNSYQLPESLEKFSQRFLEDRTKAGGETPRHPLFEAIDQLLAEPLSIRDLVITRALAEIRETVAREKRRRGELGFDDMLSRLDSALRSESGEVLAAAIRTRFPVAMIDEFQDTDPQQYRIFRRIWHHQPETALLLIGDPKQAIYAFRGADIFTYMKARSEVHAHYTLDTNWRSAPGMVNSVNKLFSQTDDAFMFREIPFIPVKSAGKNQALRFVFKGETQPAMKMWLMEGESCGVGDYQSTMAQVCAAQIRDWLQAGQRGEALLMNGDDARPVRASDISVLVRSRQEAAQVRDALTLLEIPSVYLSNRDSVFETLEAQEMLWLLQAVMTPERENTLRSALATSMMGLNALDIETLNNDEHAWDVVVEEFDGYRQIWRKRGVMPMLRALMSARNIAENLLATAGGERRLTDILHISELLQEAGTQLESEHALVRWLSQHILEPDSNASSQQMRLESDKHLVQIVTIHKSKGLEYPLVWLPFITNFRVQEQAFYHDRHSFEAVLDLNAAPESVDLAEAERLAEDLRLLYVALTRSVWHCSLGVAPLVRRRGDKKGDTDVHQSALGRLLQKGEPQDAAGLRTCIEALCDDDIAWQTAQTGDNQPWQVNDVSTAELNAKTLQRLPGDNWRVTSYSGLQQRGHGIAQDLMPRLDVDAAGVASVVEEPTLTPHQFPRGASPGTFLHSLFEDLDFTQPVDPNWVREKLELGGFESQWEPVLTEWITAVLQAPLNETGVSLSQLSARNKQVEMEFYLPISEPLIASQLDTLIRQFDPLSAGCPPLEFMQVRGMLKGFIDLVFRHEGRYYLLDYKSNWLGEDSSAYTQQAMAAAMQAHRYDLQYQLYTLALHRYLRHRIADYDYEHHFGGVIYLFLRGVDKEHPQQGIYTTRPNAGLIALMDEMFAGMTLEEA

[14] = biological target: Caspase-7 (Homo sapiens, UniProt P55210); experiment: procaspase-7 activators, dose response, counter-screen for procaspase-3 activator project, biochemical, absorbance (AID 489013)
[15] = test system: H9c2; experiment: cells; type: functional, cell-based; settings: Rattus norvegicus, H9c2, Myocardium;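 also: confirmatory concentration-response retest of ultra-high-throughput screening hits for modulation of myocardial damage; cell death induced by hydrogen peroxide oxidative stress; compound pretreatment for 60 min then peroxide exposure for 2 h; potency is for protecting the cells against peroxide damage rather than for killing them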
[16] = inhibitors of firefly luciferase expression or activity, dose response, H4 neuroglioma cells, luminescence (AID 1990); type: functional, cell-based
[17] = test system: INS1; experiment: beta cell apoptosis inhibitors, cytokine rescue, dose response, luminescence, retest (AID 449756); type: functional, cell-based; settings: Rattus norvegicus;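 also: cell death triggered by IL-1 beta plus TNF-alpha plus IFN-gamma mixture; protective hits raise ATP signal compared with cytokine alone wells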
[18] = inhibitors of SNCA 5'UTR-driven reporter translation, confirmation, H4 neuroglioma cells, luminescence (AID 1988); type: functional, cell-based
[19] = Luminescence Cell-Based Dose Response HTS to Identify Inhibitors of 5'UTR Stem-Loop Driven Prion Protein mRNA Translation in H4 Neuroglioblastoma Cells. [Related pubchem assays: 1827 (Project Summary), 1813 (Primary HTS)]; type: functional
[20] = biological target: Melanin-concentrating hormone receptor 1 (Homo sapiens, UniProt Q99705); experiment: Late-stage fluorescence-based counterscreen for antagonists of the G-protein coupled receptor 7 (GPR7): cell-based dose response assay to identify antagonists of the melanin-concentrating hormone receptor 1 (MCHR1). [Related pubchem assays (depositor defined):AID1861, AID1880, AID1952, AID2148, AID2251, AID2257, AID485339]; type: functional;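 also: stimulated with 30 nM MCH peptide agonist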
Chain of Melanin-concentrating hormone receptor 1 (Q99705 whole entry): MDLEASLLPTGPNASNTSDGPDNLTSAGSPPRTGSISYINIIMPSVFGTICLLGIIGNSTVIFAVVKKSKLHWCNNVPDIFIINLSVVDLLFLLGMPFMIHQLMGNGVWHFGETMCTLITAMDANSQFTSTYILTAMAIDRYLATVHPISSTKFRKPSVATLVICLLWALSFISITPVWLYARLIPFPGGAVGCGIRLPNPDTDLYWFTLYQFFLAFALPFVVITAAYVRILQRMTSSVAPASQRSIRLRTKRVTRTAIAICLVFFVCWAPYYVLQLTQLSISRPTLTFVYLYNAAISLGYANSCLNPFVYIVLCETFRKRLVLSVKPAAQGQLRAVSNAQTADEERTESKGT

Chain of Caspase-7 (P55210 24-198 limits assumed): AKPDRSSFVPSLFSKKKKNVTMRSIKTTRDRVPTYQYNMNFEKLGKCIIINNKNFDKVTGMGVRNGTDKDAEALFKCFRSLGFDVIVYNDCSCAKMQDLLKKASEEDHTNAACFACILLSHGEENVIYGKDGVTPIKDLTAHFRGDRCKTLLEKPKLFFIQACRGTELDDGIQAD
Chain of Caspase-7 (P55210 207-303 limits assumed): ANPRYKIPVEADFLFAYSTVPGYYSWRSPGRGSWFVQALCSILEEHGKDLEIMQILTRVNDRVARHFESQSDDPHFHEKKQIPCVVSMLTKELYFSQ
Chain of Eukaryotic translation initiation factor 4E (P63073 whole entry): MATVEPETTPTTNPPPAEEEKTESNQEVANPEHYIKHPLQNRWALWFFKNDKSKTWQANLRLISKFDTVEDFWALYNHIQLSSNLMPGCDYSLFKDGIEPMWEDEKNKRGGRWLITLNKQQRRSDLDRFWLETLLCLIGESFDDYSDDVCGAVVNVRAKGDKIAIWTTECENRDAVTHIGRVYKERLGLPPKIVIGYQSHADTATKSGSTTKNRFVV
Chain of Aryl hydrocarbon receptor (P35869 whole entry): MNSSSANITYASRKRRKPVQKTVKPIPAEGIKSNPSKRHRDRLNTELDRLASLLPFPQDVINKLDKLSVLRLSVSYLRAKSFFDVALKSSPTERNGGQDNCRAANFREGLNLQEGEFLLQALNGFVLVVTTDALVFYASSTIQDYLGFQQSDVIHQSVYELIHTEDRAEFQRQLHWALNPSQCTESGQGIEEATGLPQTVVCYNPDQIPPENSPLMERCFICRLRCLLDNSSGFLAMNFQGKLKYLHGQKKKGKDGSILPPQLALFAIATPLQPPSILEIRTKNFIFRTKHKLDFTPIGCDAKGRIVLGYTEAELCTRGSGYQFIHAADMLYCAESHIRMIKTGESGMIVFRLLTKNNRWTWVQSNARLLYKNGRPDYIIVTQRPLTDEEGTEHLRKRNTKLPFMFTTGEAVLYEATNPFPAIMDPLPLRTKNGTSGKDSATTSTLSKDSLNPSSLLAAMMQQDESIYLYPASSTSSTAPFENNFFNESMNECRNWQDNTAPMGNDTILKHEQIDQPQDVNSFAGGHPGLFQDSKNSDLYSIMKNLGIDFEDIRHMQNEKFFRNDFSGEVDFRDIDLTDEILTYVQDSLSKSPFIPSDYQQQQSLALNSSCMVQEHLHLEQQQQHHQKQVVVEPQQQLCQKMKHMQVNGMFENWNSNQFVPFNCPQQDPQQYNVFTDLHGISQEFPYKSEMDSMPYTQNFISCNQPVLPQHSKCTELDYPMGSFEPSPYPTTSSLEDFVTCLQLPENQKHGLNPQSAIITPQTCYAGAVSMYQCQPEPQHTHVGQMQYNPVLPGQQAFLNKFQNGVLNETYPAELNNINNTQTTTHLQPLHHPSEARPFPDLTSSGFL
Chain of Nucleotide-binding oligomerization domain-containing protein 2 (Q9HC29 whole entry, the tested form may be a part): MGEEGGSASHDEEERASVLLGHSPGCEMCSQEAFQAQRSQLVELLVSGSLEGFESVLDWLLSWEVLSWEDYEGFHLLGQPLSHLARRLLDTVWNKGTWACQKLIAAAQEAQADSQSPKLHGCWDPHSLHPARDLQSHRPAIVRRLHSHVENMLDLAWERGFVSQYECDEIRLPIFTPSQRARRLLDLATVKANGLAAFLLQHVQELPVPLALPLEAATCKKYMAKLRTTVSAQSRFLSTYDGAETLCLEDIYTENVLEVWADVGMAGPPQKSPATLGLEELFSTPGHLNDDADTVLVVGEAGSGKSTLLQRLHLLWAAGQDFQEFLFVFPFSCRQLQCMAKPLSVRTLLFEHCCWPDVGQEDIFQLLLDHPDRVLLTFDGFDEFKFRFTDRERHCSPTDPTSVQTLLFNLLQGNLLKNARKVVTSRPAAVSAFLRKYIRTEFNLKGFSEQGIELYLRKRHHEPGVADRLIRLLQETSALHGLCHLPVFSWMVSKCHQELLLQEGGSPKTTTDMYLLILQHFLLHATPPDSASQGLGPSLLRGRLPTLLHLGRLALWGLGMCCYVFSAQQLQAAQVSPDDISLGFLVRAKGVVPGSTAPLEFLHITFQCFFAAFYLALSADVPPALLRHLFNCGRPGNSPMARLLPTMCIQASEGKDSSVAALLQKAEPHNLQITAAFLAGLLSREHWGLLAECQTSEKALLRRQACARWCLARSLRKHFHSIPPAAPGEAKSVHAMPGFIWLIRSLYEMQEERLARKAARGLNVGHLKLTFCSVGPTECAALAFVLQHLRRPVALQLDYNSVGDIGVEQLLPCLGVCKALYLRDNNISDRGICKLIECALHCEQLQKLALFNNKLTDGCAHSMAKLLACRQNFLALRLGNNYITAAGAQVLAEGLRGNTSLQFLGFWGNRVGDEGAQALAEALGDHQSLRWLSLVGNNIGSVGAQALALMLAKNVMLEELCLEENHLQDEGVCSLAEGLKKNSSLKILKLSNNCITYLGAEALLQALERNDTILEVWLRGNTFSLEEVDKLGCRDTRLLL

## CCc1ccc(CN(C)C(=O)CCc2nc3ccccc3n(-c3ccc(OC)cc3)c2=O)cc1
[1]
  EC50: 12.7 µM (active)
[2]
  IC50: > 20 µM (inactive)
[3]
  EC50: > 260 µM (inactive)
[4]
  EC50: 16 µM (active)
[5]
  IC50: 5.96 µM (active)
[6]
  IC50: > 20 µM (inactive)
[7]
  IC50: > 20 µM (inactive)

## CCOc1ccc(COc2c(Cl)cnn(-c3ccc(C)cc3)c2=O)cc1OCC
[8]
  IC50: > 20 µM (inactive)

## O=C(N/N=C/c1c[nH]c2ccccc12)C1COc2ccccc2O1 (stereo not drawn)
[9]
  EC50: 5.67 µM (active)
[10]
  IC50: > 64 µM (inactive)

## CCCNC(=O)c1ccc2c(O)c(O)c(-c3ccc(C)cc3)nc2c1
[11]
  IC50: > 119 µM (inactive)
[12]
  EC50: > 85.3 µM (inactive)
[13]
  IC50: > 119 µM (inactive)
[14]
  EC50: > 85.3 µM (inactive)
[15]
  IC50: > 79 µM (inactive)
[16]
  EC50: 9.71 µM (active)
[17]
  AC50: 7.24 µM (active)
[18]
  EC50: 8.86 µM (active)
[19]
  EC50: > 120 µM (not active)

## COc1cc(F)ccc1Oc1c(Cl)cnn(-c2ccc(C)cc2)c1=O
[20]
  IC50: 9.5 µM (active)
[8]
  IC50: 9.7 µM (active)

## Cc1ccc(-c2cc(C(F)(F)F)c(C#N)c(SCCC#N)n2)o1
[12]
  EC50: > 85.2 µM (inactive)
[14]
  EC50: > 85.2 µM (inactive)

Reference: ChEMBL document CHEMBL1201862, “PubChem BioAssay data set” (2004)
